Data as given in ChEMBL document CHEMBL1134931, “Aminoalkoxybiphenylnitriles as histamine-3 receptor ligands” (Bioorg Med Chem Lett, 2002).

Key:
[1] = target: T1, Histamine H1 receptor (Homo sapiens, UniProt P35367); assay: Binding affinity of human cortical histamine H1 receptor
[2] = target: T2, Histamine H2 receptor (Homo sapiens, UniProt P25021); assay: Binding affinity to the human cortical histamine H2 receptor
[3] = target: T3, Histamine H3 receptor (Rattus norvegicus, UniProt Q9QYN8); assay: Binding affinity at rat cortical Histamine H3 receptor
T3 sequence (Q9QYN8 whole entry): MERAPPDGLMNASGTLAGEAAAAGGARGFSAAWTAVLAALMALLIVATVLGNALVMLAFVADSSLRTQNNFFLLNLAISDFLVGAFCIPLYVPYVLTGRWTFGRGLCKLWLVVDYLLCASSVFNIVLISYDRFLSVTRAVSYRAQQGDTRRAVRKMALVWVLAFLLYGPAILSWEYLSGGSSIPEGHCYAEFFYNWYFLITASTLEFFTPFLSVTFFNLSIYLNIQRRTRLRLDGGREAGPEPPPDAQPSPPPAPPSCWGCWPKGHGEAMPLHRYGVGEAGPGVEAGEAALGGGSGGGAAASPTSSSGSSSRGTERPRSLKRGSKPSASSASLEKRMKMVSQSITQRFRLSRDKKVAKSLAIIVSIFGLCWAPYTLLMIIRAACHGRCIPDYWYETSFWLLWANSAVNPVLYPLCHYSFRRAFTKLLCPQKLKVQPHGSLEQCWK

[4] = target: T4, Histamine H3 receptor (Homo sapiens, UniProt Q9Y5N1); assay: Binding affinity at human cloned Histamine H3 receptor
T4 sequence (Q9Y5N1 whole entry): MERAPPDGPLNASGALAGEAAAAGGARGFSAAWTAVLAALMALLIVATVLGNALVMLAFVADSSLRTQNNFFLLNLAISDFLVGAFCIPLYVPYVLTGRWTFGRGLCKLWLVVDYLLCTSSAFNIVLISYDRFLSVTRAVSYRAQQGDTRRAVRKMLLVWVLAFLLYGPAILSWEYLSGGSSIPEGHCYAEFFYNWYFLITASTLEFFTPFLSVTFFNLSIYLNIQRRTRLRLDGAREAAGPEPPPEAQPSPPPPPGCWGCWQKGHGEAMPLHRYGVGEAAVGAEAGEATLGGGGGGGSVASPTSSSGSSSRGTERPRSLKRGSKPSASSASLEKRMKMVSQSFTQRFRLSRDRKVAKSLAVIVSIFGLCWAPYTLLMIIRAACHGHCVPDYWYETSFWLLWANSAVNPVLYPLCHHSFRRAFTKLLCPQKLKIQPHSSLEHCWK

[5] = target: T2, Histamine H2 receptor; assay: Binding affinity at human cortical Histamine 2 receptor
[6] = target: T3, Histamine H3 receptor; assay: Binding affinity at rat cortical Histamine 3 receptor
[7] = target: T1, Histamine H1 receptor; assay: Binding affinity at human cortical Histamine 1 receptor
[8] = target: T4, Histamine H3 receptor; assay: Binding affinity at human cloned Histamine 3 receptor

T2 sequence (P25021 whole entry): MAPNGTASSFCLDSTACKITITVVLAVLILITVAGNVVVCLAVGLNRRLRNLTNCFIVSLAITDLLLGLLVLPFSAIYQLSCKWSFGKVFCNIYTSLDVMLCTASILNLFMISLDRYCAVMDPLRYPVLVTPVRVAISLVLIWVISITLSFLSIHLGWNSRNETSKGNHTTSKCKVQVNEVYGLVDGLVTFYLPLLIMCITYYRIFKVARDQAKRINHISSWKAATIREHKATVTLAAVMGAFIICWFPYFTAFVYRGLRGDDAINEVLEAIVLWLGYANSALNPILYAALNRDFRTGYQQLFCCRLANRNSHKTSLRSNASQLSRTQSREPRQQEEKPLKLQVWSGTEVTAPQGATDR
T1 sequence (P35367 whole entry): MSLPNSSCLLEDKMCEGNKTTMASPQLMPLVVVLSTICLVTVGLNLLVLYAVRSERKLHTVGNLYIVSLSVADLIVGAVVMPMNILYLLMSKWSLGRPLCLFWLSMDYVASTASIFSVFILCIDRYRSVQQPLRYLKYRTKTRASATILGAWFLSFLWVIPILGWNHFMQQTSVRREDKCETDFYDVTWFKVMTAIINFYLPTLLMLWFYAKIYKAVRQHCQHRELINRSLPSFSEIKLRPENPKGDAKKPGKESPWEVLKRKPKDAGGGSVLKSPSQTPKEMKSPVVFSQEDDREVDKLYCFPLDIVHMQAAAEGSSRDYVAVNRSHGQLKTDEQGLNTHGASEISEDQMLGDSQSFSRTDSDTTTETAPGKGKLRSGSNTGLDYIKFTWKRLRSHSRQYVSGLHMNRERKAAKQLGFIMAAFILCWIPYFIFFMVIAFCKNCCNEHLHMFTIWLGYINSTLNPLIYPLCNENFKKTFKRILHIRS

Question: Which results are given for `CCOC(=O)N1CCN(CCCOc2ccc(-c3ccc(OC(F)(F)F)cc3)cc2)CC1`?
Answer: Ki [1]: 0.437 µM; Ki [2]: 3.63 µM; Ki [3]: 0.24 µM

Question: For `CCOC(=O)N1CCN(CCCOc2ccc(-c3c[nH]cn3)cc2)CC1`, which Ki [1] is on record?
Answer: Its Ki is 1.48 µM.

Question: What about the Ki [2] of the same compound?
Answer: Its Ki is 69.2 µM.

Question: What about the Ki [3] of the same compound?
Answer: The Ki was 0.871 µM.

Question: With `CC1CCCN(CCCOc2ccc(-c3ccc(C#N)cc3)cc2)C1` (stereo not given) as the compound, how does the Ki [1] read?
Answer: Its Ki is 0.275 µM.

Question: And the Ki [2]?
Answer: The Ki was 11.7 µM.

Question: And the Ki [4]?
Answer: The Ki was 0.0017 µM.

Question: And the Ki [3]?
Answer: Its Ki is 0.0263 µM.

Question: How did the Ki [5] turn out when `CCOC(=O)N1CCN(CCCOc2ccc(-c3ccccc3[N+](=O)[O-])cc2)CC1` was run?
Answer: Its Ki is 7.59 µM.

Question: And the Ki [6]?
Answer: Its Ki is 0.617 µM.

Question: What about the Ki [7] of the same compound?
Answer: Its Ki is 0.162 µM.

Question: What does the source list for `N#Cc1ccc(-c2ccc(OCCCN3CCC(N)CC3)cc2)cc1`?
Answer: Ki [8]: 0.2 µM; Ki [5]: 33.9 µM; Ki [6]: 0.129 µM; Ki [7]: 3.55 µM

Question: How did the Ki [5] turn out when `CCOC(=O)N1CCN(CCCOc2ccc(-c3ccc(Cl)cc3)cc2)CC1` was run?
Answer: Its Ki is 5.62 µM.

Question: And the Ki [6]?
Answer: Its Ki is 0.191 µM.

Question: And the Ki [7]?
Answer: The Ki was 0.355 µM.

Question: `CCOC(=O)N1CCN(CCCOc2ccc(-c3cccs3)cc2)CC1` was tested. Which Ki [1] did it give?
Answer: The Ki was 0.447 µM.

Question: What about the Ki [2] of the same compound?
Answer: The Ki was 33.1 µM.

Question: And the Ki [3]?
Answer: Its Ki is 0.229 µM.

Question: With `CCOC(=O)N1CCN(CCCOc2ccc(-c3ccc([N+](=O)[O-])cc3)cc2)CC1` as the compound, how does the Ki [5] read?
Answer: The Ki was 8.32 µM.

Question: What about the Ki [6] of the same compound?
Answer: The Ki was 0.0977 µM.

Question: What about the Ki [7] of the same compound?
Answer: The Ki was 0.0813 µM.

Question: Which results are given for `CCOC(=O)N1CCN(CCCOc2ccc(-c3cc[nH]c3)cc2)CC1`?
Answer: Ki [1]: 0.501 µM; Ki [2]: 12.9 µM; Ki [4]: 1 µM; Ki [3]: 0.0562 µM

Question: `N#Cc1ccc(-c2ccc(OCCCN3CCCNCC3)cc2)cc1` was tested. Which Ki [1] did it give?
Answer: The Ki was 3.89 µM.

Question: And the Ki [2]?
Answer: Its Ki is 7.76 µM.

Question: And the Ki [4]?
Answer: The Ki was 0.00832 µM.

Question: What about the Ki [3] of the same compound?
Answer: The Ki was 0.0135 µM.

Question: Which Ki [1] does the source give for `CCOC(=O)N1CCN(CCCOc2ccc(-c3ccsc3)cc2)CC1` here?
Answer: The Ki was 0.759 µM.

Question: And the Ki [2]?
Answer: The Ki was 97.7 µM.

Question: And the Ki [3]?
Answer: Its Ki is 0.209 µM.

Question: With `N#Cc1ccc(-c2ccc(OCCCN3CCNCC3)cc2)cc1` as the compound, how does the Ki [1] read?
Answer: Its Ki is 8.91 µM.

Question: What about the Ki [2] of the same compound?
Answer: The Ki was 22.9 µM.

Question: And the Ki [4]?
Answer: Its Ki is 0.117 µM.

Question: What about the Ki [3] of the same compound?
Answer: The Ki was 0.589 µM.

Question: Which results are given for `CCOC(=O)N1CCN(CCCOc2ccc(-c3ccc(Br)cc3)cc2)CC1`?
Answer: Ki [1]: 0.182 µM; Ki [2]: 1.66 µM; Ki [3]: 0.112 µM

Question: With `CCOC(=O)N1CCN(CCCOc2ccc(-c3cccc(C#N)c3)cc2)CC1` as the compound, how does the Ki [5] read?
Answer: Its Ki is 24 µM.

Question: What about the Ki [7] of the same compound?
Answer: The Ki was 0.38 µM.

Question: What does the source list for `N#Cc1ccc(-c2ccc(OCCCN3CCOCC3)cc2)cc1`?
Answer: Ki [1]: 3.24 µM; Ki [2]: 38 µM; Ki [4]: 0.0363 µM; Ki [3]: 0.0251 µM

Question: Which Ki [1] does the source give for `CCOC(=O)N1CCN(CCCOc2ccc(-c3ccc(C#N)cc3C)cc2)CC1` here?
Answer: The Ki was 0.0275 µM.

Question: What about the Ki [2] of the same compound?
Answer: The Ki was 3.98 µM.

Question: What about the Ki [3] of the same compound?
Answer: The Ki was 0.102 µM.

Question: Which Ki [8] does the source give for `N#Cc1ccc(-c2ccc(OCCCN3CC[C@@H](O)C3)cc2)cc1` here?
Answer: The Ki was 0.00832 µM.

Question: What about the Ki [5] of the same compound?
Answer: Its Ki is 17 µM.

Question: What about the Ki [7] of the same compound?
Answer: Its Ki is 4.47 µM.

Question: `CC1CCCC(C)N1CCCOc1ccc(-c2ccc(C#N)cc2)cc1` (stereo not given) was tested. Which Ki [1] did it give?
Answer: The Ki was 3.98 µM.

Question: And the Ki [2]?
Answer: Its Ki is 24 µM.

Question: And the Ki [4]?
Answer: Its Ki is 0.00214 µM.

Question: And the Ki [3]?
Answer: Its Ki is 0.0162 µM.

Question: For `N#Cc1ccc(-c2ccc(OCCCN3CC[C@H](O)C3)cc2)cc1`, which Ki [8] is on record?
Answer: Its Ki is 0.0195 µM.

Question: What about the Ki [5] of the same compound?
Answer: Its Ki is 19.1 µM.

Question: And the Ki [6]?
Answer: Its Ki is 0.126 µM.

Question: And the Ki [7]?
Answer: Its Ki is 5.62 µM.

Question: How did the Ki [1] turn out when `N#Cc1ccc(-c2ccc(OCCCN3CC4CNCC4C3)cc2)cc1` (stereo not given) was run?
Answer: The Ki was 2.88 µM.

Question: What about the Ki [2] of the same compound?
Answer: Its Ki is 12.3 µM.

Question: What about the Ki [4] of the same compound?
Answer: The Ki was 0.0151 µM.

Question: What about the Ki [3] of the same compound?
Answer: The Ki was 0.0661 µM.

Question: Which results are given for `C[C@@]1(O)CCN(CCCOc2ccc(-c3ccc(C#N)cc3)cc2)C1`?
Answer: Ki [1]: 3.89 µM; Ki [2]: 15.1 µM; Ki [4]: 0.00407 µM; Ki [3]: 0.0155 µM

Question: With `CCOC(=O)N1CCN(CCCOc2ccc(-c3ccc(OC)cc3)cc2)CC1` as the compound, how does the Ki [1] read?
Answer: The Ki was 0.355 µM.

Question: And the Ki [2]?
Answer: The Ki was 100 µM.

Question: With `N#Cc1ccc(-c2ccc(OCCCN3CCCC3)cc2)cc1` as the compound, how does the Ki [8] read?
Answer: The Ki was 0.00724 µM.

Question: And the Ki [5]?
Answer: The Ki was 67.6 µM.

Question: What about the Ki [6] of the same compound?
Answer: Its Ki is 0.0417 µM.

Question: And the Ki [7]?
Answer: Its Ki is 5.01 µM.

Question: With `C[C@@H]1CC[C@@H](C)N1CCCOc1ccc(-c2ccc(C#N)cc2)cc1` as the compound, how does the Ki [1] read?
Answer: Its Ki is 0.562 µM.

Question: And the Ki [2]?
Answer: Its Ki is 9.12 µM.

Question: And the Ki [4]?
Answer: The Ki was 0.000676 µM.

Question: And the Ki [3]?
Answer: The Ki was 0.00646 µM.

Question: How did the Ki [1] turn out when `CC1CCN(CCCOc2ccc(-c3ccc(C#N)cc3)cc2)CC1` was run?
Answer: The Ki was 0.427 µM.

Question: And the Ki [2]?
Answer: The Ki was 9.12 µM.

Question: And the Ki [4]?
Answer: The Ki was 0.0138 µM.

Question: And the Ki [3]?
Answer: The Ki was 0.00977 µM.

Question: Which results are given for `N#Cc1ccc(-c2ccc(OCCCN3CC[C@@H](N)C3)cc2)cc1`?
Answer: Ki [8]: 0.00617 µM; Ki [5]: 7.41 µM; Ki [6]: 0.0631 µM; Ki [7]: 13.8 µM

Question: What does the source list for `CN[C@@H]1CCN(CCCOc2ccc(-c3ccc(C#N)cc3)cc2)C1`?
Answer: Ki [1]: 3.72 µM; Ki [2]: 10 µM; Ki [4]: 0.00851 µM

Question: With `CCOC(=O)N1CCN(CCCOc2ccc(-c3ccncc3)cc2)CC1` as the compound, how does the Ki [1] read?
Answer: The Ki was 3.72 µM.

Question: What about the Ki [2] of the same compound?
Answer: Its Ki is 57.5 µM.

Question: With `CN(C)[C@@H]1CCN(CCCOc2ccc(-c3ccc(C#N)cc3)cc2)C1` as the compound, how does the Ki [1] read?
Answer: The Ki was 1.91 µM.

Question: What about the Ki [2] of the same compound?
Answer: Its Ki is 10 µM.

Question: What about the Ki [4] of the same compound?
Answer: The Ki was 0.00275 µM.

Question: And the Ki [3]?
Answer: Its Ki is 0.0135 µM.

Question: What does the source list for `CC1CCCCN1CCCOc1ccc(-c2ccc(C#N)cc2)cc1` (stereo not given)?
Answer: Ki [1]: 3.47 µM; Ki [2]: 18.6 µM; Ki [4]: 0.00708 µM; Ki [3]: 0.0229 µM

Question: How did the Ki [1] turn out when `N#Cc1ccc(-c2ccc(OCCCN3CCC(O)CC3)cc2)cc1` was run?
Answer: Its Ki is 0.575 µM.

Question: What about the Ki [2] of the same compound?
Answer: Its Ki is 10 µM.

Question: What about the Ki [4] of the same compound?
Answer: Its Ki is 0.123 µM.

Question: What about the Ki [3] of the same compound?
Answer: The Ki was 0.0316 µM.

Question: Which results are given for `CCOC(=O)N1CCN(CCCOc2ccc(-c3ccc(C#N)cc3)cc2)CC1`?
Answer: Ki [1]: 0.158 µM; Ki [2]: 28.8 µM; Ki [4]: 1 µM; Ki [3]: 0.0282 µM

Question: `N#Cc1ccc(-c2ccc(OCCCN3CCCC(O)C3)cc2)cc1` (stereo not given) was tested. Which Ki [1] did it give?
Answer: Its Ki is 7.76 µM.

Question: What about the Ki [2] of the same compound?
Answer: Its Ki is 12.9 µM.

Question: And the Ki [4]?
Answer: The Ki was 0.0302 µM.

Question: And the Ki [3]?
Answer: The Ki was 0.0813 µM.
